Laboratory results published in PMC3626118 (Combinatorial chemistry & high throughput screening, 2009).

Experiments:
[1] = Solubility by laser nephelometry in assay conditions; settings: for Sol. (solubility threshold): laser nephelometry, assay conditions
[2] = molecular target: T1, RNA triphosphatase TbCet1 (Trypanosoma brucei brucei, UniProt Q582T2); assay: Transcreener ADP fluorescence polarization assay, dose-response; format: biochemical
T1 sequence (Q582T2 1-253): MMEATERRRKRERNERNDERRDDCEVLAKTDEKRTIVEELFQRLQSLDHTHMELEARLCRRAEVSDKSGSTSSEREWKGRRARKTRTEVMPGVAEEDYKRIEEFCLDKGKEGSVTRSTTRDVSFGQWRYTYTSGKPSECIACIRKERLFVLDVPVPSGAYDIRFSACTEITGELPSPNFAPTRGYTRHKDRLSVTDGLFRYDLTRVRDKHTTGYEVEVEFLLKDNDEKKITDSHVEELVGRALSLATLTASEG

physchem = settings: pH 8, aqueous buffer, kinetic from dmso stock

IC50 [2]	SMILES	further results
	O=C(O[C@@H]1Cc2c(O)cc(O)cc2O[C@@H]1c1cc(O)c(O)c(O)c1)c1cc(O)c(O)c(O)c1 [SKI 209458, Epigallocatechin-3-monogallate]	Sol. (solubility threshold) [1]: > 100 µM
	Nc1cccc2c1C(=O)c1cccc(N)c1C2=O [SKI 217754, Anthraquinone, 1,5-diamino]	Sol. (solubility threshold) [1]: > 100 µM
8.8 µM	O=c1c(O)cc([C@H]2Oc3cc(O)cc(O)c3C[C@H]2O)cc2c([C@H]3Oc4cc(O)cc(O)c4C[C@H]3O)cc(O)c(O)c12 [SKI 209343, Theaflavin]	
0.065 µM	O=c1c(-c2cc(O)c(O)c(O)c2)coc2cc(O)c(O)c(O)c12 [SKI 209392, Irigenol]	
0.01 µM	O=C(O[C@@H]1Cc2c(O)cc(O)cc2O[C@@H]1c1cc(O)c(O)c(O)c1-c1c([C@H]2Oc3cc(O)cc(O)c3C[C@H]2O)cc(O)c(O)c1O)c1cc(O)c(O)c(O)c1 [SKI 209412, 2′,2′-Bisepigallocatechin monogallate]	
	O=C(Oc1cc(O)cc2c1C[C@@H](OC(=O)c1cc(O)c(O)c(O)c1)[C@@H](c1cc(O)c(O)c(O)c1)O2)c1cc(O)c(O)c(O)c1 [SKI 209415, Epigallocatechin-3,5-digallate]	Sol. (solubility threshold) [1]: > 100 µM
2.1 µM	O=c1c(O)c(-c2ccc(O)c(O)c2)oc2cc(O)ccc12 [SKI 210887, Fisetin]	
0.21 µM	O=c1c(O)cccc2cc(O)c(O)c(O)c12 [SKI 209468, Purpurogallin]	
3.9 µM	COc1cc(O)c2c(=O)c(O)c(-c3ccc(O)c(O)c3)oc2c1 [SKI 209674, Rhamnetin]	
0.035 µM	O=c1oc2c(O)c(O)cc3c(=O)oc4c(O)c(O)cc1c4c23 [SKI 210886, Ellagic acid]	
0.2 µM	O=C1C=C2CC3(O)COc4c(ccc(O)c4O)C3=C2C=C1O (stereo not shown) [SKI 210893, Hematein]	
0.72 µM	NC[C@H](O)c1ccc(O)c(O)c1 [SKI 210170, Norepinephrine, reference compound]	solubility (physchem): > 100 µM
	O=C(O[C@@H]1Cc2c(O)cc(O)cc2O[C@@H]1c1ccc(O)c(O)c1)c1cc(O)c(O)c(O)c1 [SKI 209457, Epicatechin monogallate]	Sol. (solubility threshold) [1]: > 100 µM
0.44 µM	O=c1c(O)cccc2c([C@H]3Oc4cc(O)cc(O)c4C[C@H]3O)cc(O)c(O)c12 [SKI 209509, Theaflavanin]	

SMILES	IC50 [2]	further results
Oc1cc2c(cc1O)C1c3ccc(O)c(O)c3OCC1(O)C2 (stereo not shown) [SKI 209325, Haematoxylin]	1.7 µM	solubility (physchem): > 100 µM
O=c1c(O)c(-c2cc(O)c(O)c(O)c2)oc2cc(O)cc(O)c12 [SKI 211290, Myricetin]	7.2 µM	solubility ([1]; pH 8, aqueous buffer, kinetic from dmso stock): > 100 µM
Oc1cc(O)c2c(c1)O[C@H](c1cc(O)c(O)c(O)c1)[C@H](O)C2 [SKI 209444, Epigallocatechin]	4.4 µM	
N[C@@H](Cc1ccc(O)c(O)c1)C(=O)O [SKI 211511, Levodopa, reference compound]	0.03 µM	solubility (physchem): > 100 µM
